The target of this experiment is human A2A receptor (A2AR) (Homo sapiens, UniProt P29274). In words: Luciferase reporter assay (HEK293-A2AR-luc2p/CRE/Hygro cells, 3 nM CGS21680). The experiment is classed as cell-based. The following applies: 3 nM CGS21680, 5 h incubation. In outline:
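HEK293 cells stably expressing A2AR with a CRE-luc2P reporter were seeded in 1% FBS with 1 U/mL adenosine deaminase. After 18 h, cells got 3 nM CGS21680 plus antagonist at 0.1–10000 nM for 5 h, followed by a luciferase readout. IC50 is relative to the 3 nM CGS21680 signal, set as 100%.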
On the technique in general: A reporter such as luciferase makes a cellular process visible.

The term IC50 denotes the point on the concentration scale where inhibition reaches its midpoint. A higher IC50 goes with weaker potency in that assay.

Chain of human A2A receptor (A2AR) (P29274 whole entry): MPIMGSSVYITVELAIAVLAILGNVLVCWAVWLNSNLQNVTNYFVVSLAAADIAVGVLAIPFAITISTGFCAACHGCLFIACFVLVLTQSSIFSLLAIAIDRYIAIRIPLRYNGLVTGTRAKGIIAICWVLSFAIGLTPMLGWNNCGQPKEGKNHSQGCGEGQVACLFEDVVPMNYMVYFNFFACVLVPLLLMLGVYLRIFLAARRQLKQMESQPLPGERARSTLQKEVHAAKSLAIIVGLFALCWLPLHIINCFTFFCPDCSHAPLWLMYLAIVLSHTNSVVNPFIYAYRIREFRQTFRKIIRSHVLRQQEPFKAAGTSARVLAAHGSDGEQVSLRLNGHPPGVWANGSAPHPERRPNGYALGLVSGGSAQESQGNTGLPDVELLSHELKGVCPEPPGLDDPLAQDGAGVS

In turn, `Nc1nc2c(cnn2C(C(=O)N2CCN(c3ccc(F)cc3)CC2)c2ccccc2)c2nc(-c3ccco3)nn12` (stereo not shown) [Compound A49, 2-(5-amino-2-(furan-2-yl)-7H-pyrazolo[4,3-e][1,2,4]triazolo[1,5-c]pyrimidin-7-yl)-1-(4-(4-fluorophenyl)piperazin-1-yl)-2-phenylethan-1-one] displayed an IC50 of 3.2 nM. That is a single-digit nanomolar value.

In turn, `COCCOc1cc(F)c(N2CCN(C(=O)C(C)(c3ccccc3)n3ncc4c3nc(N)n3nc(-c5ccco5)nc43)CC2)cc1F` (stereo not shown) [Compound A65, 2-(5-amino-2-(furan-2-yl)-7H-pyrazolo[4,3-e][1,2,4]triazolo[1,5-c]pyrimidin-7-yl)-1-(4-(2,5-difluoro-4-(2-methoxyethoxy)phenyl)piperazin-1-yl)-2-phenylpropan-1-one] registered an IC50 of 6.4 nM. This IC50 lies about 2-fold higher than the previous one. For the compound `CN(C)C(=O)c1ccc(N2CCN(C(=O)C(C)(c3ccccc3)n3ncc4c3nc(N)n3nc(-c5ccco5)nc43)CC2)cc1` (stereo not shown) [Compound A104, 4-(4-(2-(5-amino-2-(furan-2-yl)-7H-pyrazolo[4,3-e][1,2,4]triazolo[1,5-c]pyrimidin-7-yl)-2-phenylpropanoyl)piperazin-1-yl)-N,N-dimethylbenzamide], 5.5 nM corresponded to half-maximal inhibition (IC50). With `COCCOc1ccc(N2CCN(C(=O)C(c3ccccc3)n3ncc4c3nc(N)n3nc(-c5ccco5)nc43)CC2)c(F)c1` (single isomer, unassigned) [Compound A44b], half-maximal inhibition (IC50) required 0.5 nM.

`COCCOc1ccc(N2CCN(C(=O)C(c3ccc(OC)cc3)n3ncc4c3nc(N)n3nc(-c5ccco5)nc43)CC2)cc1` (stereo not shown) [Compound A29, 2-(5-amino-2-(furan-2-yl)-7H-pyrazolo[4,3-e][1,2,4]triazolo[1,5-c]pyrimidin-7-yl)-1-(4-(4-(2-methoxyethoxy)phenyl)piperazin-1-yl)-2-(4-methoxyphenyl)ethan-1-one]: inhibition was half-maximal at 20.5 nM (IC50). In the case of `CC(C(=O)N1CCN(c2ccc(C(=O)NCC3(O)COC3)cc2)CC1)(c1ccccc1)n1ncc2c1nc(N)n1nc(-c3ccco3)nc21` (stereo not shown) [Compound A83, 4-(4-(2-(5-amino-2-(furan-2-yl)-7H-pyrazolo[4,3-e][1,2,4]triazolo[1,5-c]pyrimidin-7-yl)-2-phenylpropanoyl)piperazin-1-yl)-N-((3-hydroxyoxetan-3-yl)methyl)benzamide] it was 3.7 nM. With `CN(C)CCOc1ccc(N2CCN(C(=O)C(c3ccccc3)n3ncc4c3nc(N)n3nc(-c5ccco5)nc43)CC2)cc1` (stereo not shown) [Compound A37, 2-(5-amino-2-(furan-2-yl)-7H-pyrazolo[4,3-e][1,2,4]triazolo[1,5-c]pyrimidin-7-yl)-1-(4-(4-(2-(dimethylamino)ethoxy)phenyl)piperazin-1-yl)-2-phenylethan-1-one], the half-inhibitory concentration (IC50) was 2.5 nM.

`CCCCC(C(=O)N1CCN(c2ccc(OCCOCCOC)cc2)CC1)n1ncc2c1nc(N)n1nc(-c3ccco3)nc21` (single isomer, unassigned) [Compound A11a] registered an IC50 of 4.6 nM.

Take `COCCOc1cc(F)c(N2CCN(C(=O)[C@@](C)(c3ccccc3)n3ncc4c3nc(N)n3nc(-c5ccco5)nc43)CC2)cc1F` [Compound A65b, (R)-2-(5-amino-2-(furan-2-yl)-7H-pyrazolo[4,3-e][1,2,4]triazolo[1,5-c]pyrimidin-7-yl)-1-(4-(2,5-difluoro-4-(2-methoxyethoxy)phenyl)piperazin-1-yl)-2-phenylpropan-1-one]: the IC50 turned out to be 3.3 nM. This IC50 and that of the compound before are within 1.5-fold of each other. On to `COCCOc1ccc(N2CCN(C(=O)C(c3ccccc3)n3ncc4c3nc(N)n3nc(-c5ccco5)nc43)CC2)c(F)c1` (single isomer, unassigned) [Compound A44a], for which the concentration for half-maximal inhibition (IC50) was 39.2 nM. This IC50 is about 12-fold higher than that of the compound before. In turn, `CC(C(=O)N1CCN(c2ccccc2C(=O)N2CCCCC2)CC1)(c1ccccc1)n1ncc2c1nc(N)n1nc(-c3ccco3)nc21` (stereo not shown) [Compound A99, 2-(5-amino-2-(furan-2-yl)-7H-pyrazolo[4,3-e][1,2,4]triazolo[1,5-c]pyrimidin-7-yl)-2-phenyl-1-(4-(2-(piperidine-1-carbonyl)phenyl)piperazin-1-yl)propan-1-one] gave a half-inhibitory concentration (IC50) of 28.6 nM. Regarding `COCCOCCOc1ccc(N2CCN(C(=O)C(C(C)C)n3cc4c(nc(N)n5nc(-c6ccco6)nc45)n3)CC2)cc1` (stereo not shown) [Compound C12, 2-(5-amino-2-(furan-2-yl)-8H-pyrazolo[4,3-e][1,2,4]triazolo[1,5-c]pyrimidin-8-yl)-1-(4-(4-(2-(2-methoxyethoxy)ethoxy)phenyl)piperazin-1-yl)-3-methylbutan-1-one], the 50% inhibitory concentration (IC50) came to 337 nM.

Regarding `CCCC(C(=O)N1CCN(c2c(F)cc(OCCOC)cc2F)CC1)n1ncc2c1nc(N)n1nc(-c3ccco3)nc21` (stereo not shown) [Compound A25, 2-(5-amino-2-(furan-2-yl)-7H-pyrazolo[4,3-e][1,2,4]triazolo[1,5-c]pyrimidin-7-yl)-1-(4-(2,6-difluoro-4-(2-methoxyethoxy)phenyl)piperazin-1-yl)pentan-1-one], half-maximal inhibition (IC50) required 4.5 nM. This IC50 is about 75-fold lower than that of the compound before. Compound `COCCOc1ccc(N2CCN(C(=O)C(C)(c3ccccc3)n3ncc4c3nc(N)n3nc(-c5nccnc5C)nc43)CC2)cc1` (stereo not shown) [Compound A95, 2-(5-amino-2-(3-methylpyrazin-2-yl)-7H-pyrazolo[4,3-e][1,2,4]triazolo[1,5-c]pyrimidin-7-yl)-1-(4-(4-(2-methoxyethoxy)phenyl)piperazin-1-yl)-2-phenylpropan-1-one] gave an IC50 of 31.1 nM. `C[C@@](C(=O)N1CCN(c2ccc(F)cc2)CC1)(c1ccccc1)n1ncc2c1nc(N)n1nc(-c3ccco3)nc21` [Compound A70a, (S)-2-(5-amino-2-(furan-2-yl)-7H-pyrazolo[4,3-e][1,2,4]triazolo[1,5-c]pyrimidin-7-yl)-1-(4-(4-fluorophenyl)piperazin-1-yl)-2-phenylpropan-1-one]: the half-maximal inhibitory concentration (IC50) is 10.1 nM. This IC50 is about 3.1-fold lower than that of the compound before. To `CC1(O)CCN(C(=O)C(C)(c2ccccc2)n2ncc3c2nc(N)n2nc(-c4ccco4)nc32)CC1` (stereo not shown) [Compound B25, 2-(5-amino-2-(furan-2-yl)-7H-pyrazolo[4,3-e][1,2,4]triazolo[1,5-c]pyrimidin-7-yl)-1-(4-hydroxy-4-methylpiperidin-1-yl)-2-phenylpropan-1-one] belongs 23.7 nM; to `CN(C)C(=O)c1cccc(N2CCN(C(=O)C(C)(c3ccccc3)n3ncc4c3nc(N)n3nc(-c5ccco5)nc43)CC2)c1` (stereo not shown) [Compound A88, 3-(4-(2-(5-amino-2-(furan-2-yl)-7H-pyrazolo[4,3-e][1,2,4]triazolo[1,5-c]pyrimidin-7-yl)-2-phenylpropanoyl)piperazin-1-yl)-N,N-dimethylbenzamide], 7 nM. `COC(=O)C1CC2(CCN(C(=O)C(C)(c3ccccc3)n3ncc4c3nc(N)n3nc(-c5ccco5)nc43)CC2)C1` (stereo not shown) [Compound B33, methyl 7-(2-(5-amino-2-(furan-2-yl)-7H-pyrazolo[4,3-e][1,2,4]triazolo[1,5-c]pyrimidin-7-yl)-2-phenylpropanoyl)-7-azaspiro[3.5]nonane-2-carboxylate] came in with an IC50 of 16.5 nM. Turning to `COCCOc1ccc(N2CCN(C(=O)C(c3ccccc3F)n3ncc4c3nc(N)n3nc(-c5ccco5)nc43)CC2)cc1` (single isomer, unassigned) [Compound A43a], half-maximal inhibition (IC50) required 16.1 nM. `CN(C)CCOc1ccc(N2CCN(C(=O)C(C)(c3ccccc3)n3ncc4c3nc(N)n3nc(-c5ccco5)nc43)CC2)cc1` (single isomer, unassigned) [Compound A71b] gave a 50% inhibitory concentration (IC50) of 4.8 nM. Compared with the last compound, the IC50 is about 3.4-fold lower. On to `COCCOc1ccc(N2CCN(C(=O)C(C)n3ncc4c3nc(N)n3nc(-c5ccco5)nc43)CC2)cc1` (single isomer, unassigned) [Compound A1a, 2-(5-amino-2-(furan-2-yl)-7H-pyrazolo[4,3-e][1,2,4]triazolo[1,5-c]pyrimidin-7-yl)-1-(4-(4-(2-methoxyethoxy)phenyl)piperazin-1-yl)propan-1-one], for which the midpoint of inhibition, the IC50, lay at 223 nM. In the case of `COCCOc1ccc(N2CCN(C(=O)C(C)(c3ccccc3)n3cc4c(nc(N)n5nc(-c6ccco6)nc45)n3)CC2)cc1` (single isomer, unassigned) [Compound C25a] it was 79.8 nM; in that of `CC(C(=O)N1CCN(c2ccc(OCCN3CCOCC3)cc2)CC1)(c1ccccc1)n1ncc2c1nc(N)n1nc(-c3ccco3)nc21` (stereo not shown) [Compound A80, 2-(5-amino-2-(furan-2-yl)-7H-pyrazolo[4,3-e][1,2,4]triazolo[1,5-c]pyrimidin-7-yl)-1-(4-(4-(2-morpholinoethoxy)phenyl)piperazin-1-yl)-2-phenylpropan-1-one], 4.3 nM. Compound `CC(C(=O)N1CCN(c2ccc(OCCCN3CCOCC3)cc2)CC1)(c1ccccc1)n1ncc2c1nc(N)n1nc(-c3ccco3)nc21` (stereo not shown) [Compound A76, 2-(5-amino-2-(furan-2-yl)-7H-pyrazolo[4,3-e][1,2,4]triazolo[1,5-c]pyrimidin-7-yl)-1-(4-(4-(3-morpholinopropoxy)phenyl)piperazin-1-yl)-2-phenylpropan-1-one] returned an IC50 of 7.3 nM. As for `CCCC(C(=O)N1CCN(c2ccc(OCCOC)c(F)c2F)CC1)n1ncc2c1nc(N)n1nc(-c3ccco3)nc21` (stereo not shown) [Compound A51, 2-(5-amino-2-(furan-2-yl)-7H-pyrazolo[4,3-e][1,2,4]triazolo[1,5-c]pyrimidin-7-yl)-1-(4-(2,3-difluoro-4-(2-methoxyethoxy)phenyl)piperazin-1-yl)pentan-1-one], it took 4.8 nM to reach half-maximal inhibition (IC50). Compound `CC(C(=O)N1CCC2(CC1)COC2)(c1ccccc1)n1ncc2c1nc(N)n1nc(-c3ccco3)nc21` (stereo not shown) [Compound B34] displayed a half-maximal inhibitory concentration (IC50) of 14 nM. In turn, `CC(C(=O)N1CCN(c2ccc(OCCN(C)C)cc2)CC1)n1ncc2c1nc(N)n1nc(-c3ccco3)nc21` (stereo not shown) [Compound A18, 2-(5-amino-2-(furan-2-yl)-7H-pyrazolo[4,3-e][1,2,4]triazolo[1,5-c]pyrimidin-7-yl)-1-(4-(4-(2-(dimethylamino)ethoxy)phenyl)piperazin-1-yl)propan-1-one] had a half-maximal inhibitory concentration (IC50) of 30.6 nM.

In turn, `COCCOc1ccc2c(c1)CN(C(=O)C(c1ccccc1)n1ncc3c1nc(N)n1nc(-c4ccco4)nc31)CC2` (stereo not shown) [Compound B14, 2-(5-amino-2-(furan-2-yl)-7H-pyrazolo[4,3-e][1,2,4]triazolo[1,5-c]pyrimidin-7-yl)-1-(7-(2-methoxyethoxy)-3,4-dihydroisoquinolin-2(1H)-yl)-2-phenylethan-1-one] gave an IC50 of 5.7 nM.

(Values after patent US20210300936A1, “PYRAZOLOTRIAZOLOPYRIMIDINE DERIVATIVES AS A2A RECEPTOR ANTAGONIST” (BEIGENE, LTD., priority 2018, published 2021).)
